These results are taken from patent US20240082212A1, “USE OF MDMA FOR TREATMENT OF STRESS-RELATED DISORDERS” (priority 2022, published 2024).

Broadly, the inhibition is how much of the control response was suppressed. By Cmax is commonly meant the highest concentration seen after dosing. What is called Tmax is the time at which the peak concentration occurs.

One series concerns the target T1, Adrenergic α2A (Homo sapiens, UniProt P08913).
T1 sequence (P08913 1-465): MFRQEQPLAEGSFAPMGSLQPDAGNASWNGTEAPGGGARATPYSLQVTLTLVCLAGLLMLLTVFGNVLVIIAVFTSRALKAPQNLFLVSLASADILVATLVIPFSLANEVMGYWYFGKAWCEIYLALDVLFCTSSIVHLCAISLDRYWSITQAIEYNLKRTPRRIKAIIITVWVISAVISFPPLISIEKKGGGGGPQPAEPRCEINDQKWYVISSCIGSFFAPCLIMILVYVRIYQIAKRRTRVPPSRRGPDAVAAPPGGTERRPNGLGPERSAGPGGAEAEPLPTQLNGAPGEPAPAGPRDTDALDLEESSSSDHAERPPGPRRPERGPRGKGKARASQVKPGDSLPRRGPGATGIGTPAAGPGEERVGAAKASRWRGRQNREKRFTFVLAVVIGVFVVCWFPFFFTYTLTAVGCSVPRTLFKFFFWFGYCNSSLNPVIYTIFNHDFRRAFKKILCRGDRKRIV
Kind of series: Eurofins Panlabs radioligand binding panel, adrenergic α2A. Conditions: read-out: % inhibition of binding or activity. Here is the method:
Each of the compounds was evaluated for binding to 87 different targets as part of a panel (Eurofins Panlabs, Taiwan, China). Each compound was tested at a single concentration of […]. The panel included mostly G-protein-couple receptors, ion channels, enzymes, transporters and nuclear receptors, expressed in the central nervous system, cardiovascular, respiratory, gastrointestinal and renal systems. A limited number of targets were of pig, rat or guinea pig origin. Targets were expressed in human recombinant cells lines, rat brain or spinal cord, guinea pig brain or pig heart. Methods were adapted from the scientific literature to maximize reliability and reproducibility. Reference standards were run as an integral part of each assay to ensure validity of the results obtained (available online at the eurofins website for the safety screen 87 panel).

The subject of the next series is cortical neurons. Description: Neurite outgrowth in embryonic rat cortical neuron cultures. Format: cell-based. Conditions: any tested concentration (0.001 to 10000 nM), 3 days, vs vehicle. From the text:
Female Wistar rats of 17 days gestation were killed by cervical dislocation and the fetuses (typically 6 to 8 in number) were removed from the uteri. Fetal brains were placed in ice-cold medium of Leibovitz (L15, Gibco, France). Cortex was dissected and meninges were carefully removed. The cortical neurons were dissociated by trypsinization (trypsin-EDTA, Gibco) in the presence of DNAse I (Roche, France). The reaction was stopped by addition of Dulbecco's Modified Eagle Medium (DMEM; Gibco) with 10% of fetal bovine serum (FBS; Gibco). The suspension was triturated with a 10-ml pipette and a 21-gauge needle syringe and centrifuged. The pellet of dissociated cells was resuspended in a medium consisting of Neurobasal (Gibco) supplemented with 2% B27 supplement (Gibco), 0.5 mM L-Glutamine (Gibco), and an antibiotic-antimycotic mixture. Viable cells were counted in a Neubauer cytometer and cells were seeded in 96-well plates (Costar) precoated with poly-L-lysine at 10,000 cells/well. […] Stock solutions were prepared in sterile water at 10 mM and stored at −20° C. until used. Further dilutions were prepared in culture in the medium on the day of the treatment. 0.1% Sterile water was present in all tested conditions.
The experimental protocol was performed in two independent cultures (i.e., from two different pregnant rats). For each culture, each condition was tested in sextuplet (6 wells per condition per culture for a total of 12 wells per condition). […] After three days of plating and compound treatment (Day 3), cultures were fixed with paraformaldehyde in phosphate buffered saline at 4° C. (PBS, 4%, Sigma). All subsequent steps were performed at room temperature. Cells were successively permeabilized for 30 minutes using 0.1% triton, saturated with PBS containing 3% bovine serum albumin (BSA) and incubated for 1 hour with anti-beta III tubulin antibody (T5168, Sigma). […] Finally, nuclei were stained with 4′-6-diamidino-2-phenylindole (DAPI). After rinsing the cells with PBS, the plate was imaged and neurite networks were examined and analyzed using a High-Content Screening platform (CellInsight CXS, Thermo Scientific) with integrated Photometrics high-resolution fluorescent camera, Olympus objective (10×) and HCS Studio Cell Analysis Software. Approximately 2,000 neurons per well were analyzed using a validated cortex neuron outgrowth algorithm that utilizes parameters optimized for analysis of embryonic rat cortical neuron cultures. The HCS Studio Cell Analysis Software output included values for neurite total count (#), neurite total length (μm) and total number of branch points (#) for each of the 6 wells per culture. The evaluation of neurite outgrowth was performed using the average number of neurites per neuron (#), the average of total neurite length per neuron (μm) and the average number of branch points per neuron (#) across 12 wells. Data also was transformed to percent (%) of the average vehicle control value. Results were expressed as mean (±s.e.m.) of the transformed (% of vehicle control) data. Statistical analyses were performed on transformed percent of the average vehicle control data for each measure for each test article using one-way analysis of variance (Anova, StatView). Where applicable, Dunnett's test was used for multiple pairwise comparisons to the negative control (vehicle) condition. […] The level of significance was set at p value less than or equal to 0.05 (*p<0.05).

In the next series the target is Serotonin 5-HT2B (Homo sapiens, UniProt P41595). Kind of series: Eurofins Panlabs radioligand binding panel, serotonin 5-HT2B. Conditions: 10 uM.
The next series deals with C57BL/6J mice. Kind of series: Head twitch response (HTR). Format: in vivo, mouse. Particulars: 30 minutes after injection. Here is the method: Male C57BL/6J mice at 6-8 weeks of age were purchased from Jackson Laboratories and housed four per cage in a climate and humidity-controlled room in a vivarium at the University of California, San Diego. The room operated on a reverse light cycle (lights on at 1900 h, off at 0700 h) with food and water available ad libitum, except during testing. All testing was performed during 1000 h and 1800 h. After a minimum of 1 week acclimation to the housing facility, mice were anesthetized using a mixture of ketamine (100 mg/kg IP) and xylazine (10 mg/kg IP). Under deep anesthesia, an incision was made in the scalp and a small neodymium magnet (4.57 mm×4.57 mm×2.03 mm) was attached to the cranium using cyanoacrylate and dental cement. After at least a 2-week recovery period, the mouse was removed from the home cage and injected intraperitoneally with the test article or vehicle (0.9% sterile saline). Immediately, the mouse was placed in a glass cylinder surrounded by a magnetometer coil and the head twitch response (HTR) was assessed for 30 minutes (Halberstadt and Geyer, 2013). The output of the coil was recorded using a Powerlab/8SP with LabChart v.7.3.2 (ADInstruments). Coil voltage was amplified, low-pass filtered (2-10 kHz cut-off frequency) to remove interference, digitized and sampled at 20 kHz. Head twitches were identified using a validated technique based on artificial intelligence (Halberstadt, 2020). Events in the recordings were transformed into a visual representation in the time-frequency domain and deep features were extracted using the pretrained convolutional neural network ResNet-50, and the images were subsequently classified using a Support Vector Machine algorithm.
Test articles (R,S-MDA, R(−)-MDA, S-(+)MDA), R,S-MDMA, R(−)-MDMA and S(+)-MDMA) were supplied by the NIDA Drug Supply Program as neat powders. Racemic MDA and MDMA and their enantiomers were dissolved in saline and injected IP at a volume of 5 mL/kg. Each dose was calculated based on the salt form of the compounds. For each treatment condition, six groups of mice (n=5-6/group) were treated with vehicle or the test drug (0.1, 0.3, 1, 3, or 10 mg/kg) and HTR assessed for 30 minutes immediately following injections. To avoid carryover effects, each treatment condition was performed at least seven days apart. Total number of mice used for the experiment was 63.

Series [1] can be described thus: Rat plasma pharmacokinetics after cumulative (QID) SC injections. Conditions: for Cmax: metabolite after QID SC parent (R-MDA after R-MDMA, S-MDA after S-MDMA, total MDA after Rac-MDMA).
The next series has as its target T2, Serotonin 5-HT1A (Homo sapiens, UniProt P08908).
T2 sequence (P08908 1-422): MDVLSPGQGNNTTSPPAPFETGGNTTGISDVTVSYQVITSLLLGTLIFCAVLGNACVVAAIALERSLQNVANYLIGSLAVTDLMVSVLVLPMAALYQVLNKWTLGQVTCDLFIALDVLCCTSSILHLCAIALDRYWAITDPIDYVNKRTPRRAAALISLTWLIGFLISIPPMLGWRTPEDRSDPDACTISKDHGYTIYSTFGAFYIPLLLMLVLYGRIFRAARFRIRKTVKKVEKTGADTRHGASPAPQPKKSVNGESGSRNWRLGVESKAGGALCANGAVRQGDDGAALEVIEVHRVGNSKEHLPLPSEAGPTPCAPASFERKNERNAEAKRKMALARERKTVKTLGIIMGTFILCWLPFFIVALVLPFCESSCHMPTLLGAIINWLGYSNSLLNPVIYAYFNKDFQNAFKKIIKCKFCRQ
Description: Eurofins Panlabs radioligand binding panel, serotonin 5-HT1A. Particulars: 10 uM.

Where [2] appears, read: male rat plasma, metabolite after QID SC parent, total 10 mg/kg/day.
Where [3] appears, read: male rat plasma, metabolite after QID SC parent, total 20 mg/kg/day.

Sequence of Serotonin 5-HT2B (P41595 whole entry): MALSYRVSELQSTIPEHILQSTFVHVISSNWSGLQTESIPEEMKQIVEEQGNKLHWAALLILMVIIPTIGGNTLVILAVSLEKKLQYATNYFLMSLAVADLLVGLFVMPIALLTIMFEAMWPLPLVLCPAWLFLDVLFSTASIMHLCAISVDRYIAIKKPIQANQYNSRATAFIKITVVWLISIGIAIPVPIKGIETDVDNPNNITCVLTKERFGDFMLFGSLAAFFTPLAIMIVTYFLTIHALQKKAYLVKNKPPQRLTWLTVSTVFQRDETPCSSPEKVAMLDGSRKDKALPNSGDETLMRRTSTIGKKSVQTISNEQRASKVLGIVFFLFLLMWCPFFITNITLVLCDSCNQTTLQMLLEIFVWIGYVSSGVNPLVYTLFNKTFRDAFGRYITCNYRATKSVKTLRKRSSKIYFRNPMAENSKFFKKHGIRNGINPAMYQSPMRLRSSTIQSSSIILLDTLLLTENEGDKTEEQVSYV

Turning to `CC(N)Cc1ccc2c(c1)OCO2` (racemic) [Racemic MDA, 3,4-methylenedioxyamphetamine], the inhibition at 10 µM on Adrenergic α2A came to 53%. In the series with cortical neurons, the “neurite number (#)” value is on record as “did not significantly alter”, the “neurite total length (μm)” value is on record as “did not significantly alter” and the “total number of branch points (#)” value was “did not significantly alter”. For the same molecule, on Serotonin 5-HT2B (read-out: % inhibition of binding or activity), the inhibition at 10 µM worked out at 89%. Further, the “head twitch response (HTR) compared to control (vehicle)” value in the series on C57BL/6J mice (3 mg/kg IP) is “increased HTR”.

On to `C[C@@H](N)Cc1ccc2c(c1)OCO2` [R-MDA, R(−)-MDA], for which the “dose dependence of Cmax and AUC0-27 hr” value in series [1] (dose increase from 10 to 20 mg/kg/day of the dosed test article, QID SC) is listed as “approximately dose proportional manner”. Further, in series [1] (male rat plasma, total 10 mg/kg/day), the Cmax turned out to be 127 ng/mL. Besides, the Cmax in series [1] (male rat plasma, total 20 mg/kg/day) was found to be 272 ng/mL. For the same molecule, in series [1] (setting [2]), the AUC0-27 hr came out at 813 ng·h/mL, the “AUC0-27 hr/Dose” value is given as 81.3 *kg*ng/mL/mg, the AUCTlast was found to be 716 ng·h/mL and the Cmax/Dose turned out to be 12.7 kg·ng/mL/mg. In series [1] (setting [2]), the Tlast is 11 h and the Tmax worked out at 5 h. In series [1] (setting [3]), the AUC0-27 hr was found to be 2410 ng·h/mL, the “AUC0-27 hr/Dose” value is recorded as 121 *kg*ng/mL/mg, the AUCTlast came to 1810 ng·h/mL and the Cmax/Dose worked out at 13.6 kg·ng/mL/mg. Also, in series [1] (setting [3]), the T1/2 worked out at 2.67 h, the Tlast stood at 11 h and the Tmax was found to be 5 h. Moreover, the “% inhibition of binding or activity” value at Serotonin 5-HT1A is 50%. Moreover, in the series with cortical neurons, the “neurite number (#)” value is listed as “did not significantly alter”, the “neurite total length (μm)” value is “did not significantly alter” and the “total number of branch points (#)” value is “did not significantly alter”. Besides, the “% inhibition of binding or activity” value on Serotonin 5-HT2B is 88%. Besides, in the series on C57BL/6J mice (1 mg/kg IP), the “head twitch response (HTR) compared to control (vehicle)” value is listed as “elicited an increase in HTR”. Also, the “head twitch response (HTR) compared to control (vehicle)” value in the series with C57BL/6J mice (3 mg/kg IP) is reported as “elicited an increase in HTR”. Besides, in the series on C57BL/6J mice (10 mg/kg IP), the “head twitch response (HTR) compared to control (vehicle)” value was “elicited an increase in HTR”.
